# Measurements from US20260365672A1, “K-RAS MUTANT PROTEIN INHIBITORS” (Jacobio Pharmaceuticals Co., Ltd., priority 2022, published 2026).
# pIC50: −log10 of the molar value.
# Molecular target: T1, GDP-KRAS G12V (Homo sapiens, UniProt P01116, G12V)
# T1 construct: GDP-loaded HIS-KRAS(G12V, aa 1-169)
# Assay: SOS1 catalyzed nucleotide exchange assay (TR-FRET)
# Format: biochemical
# Settings: GDP-loaded HIS-KRAS(G12V, aa 1-169) 10-15 nM; 0.5 μM SOS1 ExD; 80 nM BODIPY FL GTP; 15 min pre-incubation, 4 hours at 25 °C
# Experimental: GDP-loaded HIS-KRAS(G12V, aa 1-169) was pre-incubated with a compound in the presence of 10 nM GDP in a 384-well plate (Greiner) for 15 min, then purified SOS1 ExD (Flag tag, aa 564-1049), BODIPY™ FL GTP (Invitrogen) and MAb (monoclonal antibody) Anti 6HIS-Tb cryptate Gold (Cisbio) were added to the assay wells (Final concentration: 10-15 nM GDP-loaded HIS-KRAS(G12V), 5 nM GDP, 0.5 μM SOS1 ExD, 80 nM BODIPY™ FL GTP, 52.5 ng/mL MAb Anti 6HIS-Tb cryptate Gold) and incubated for 4 hours at 25 °C. Wells containing same percent of DMSO served as vehicle control, and wells without KRAS served as low control. TR-FRET signals were read on Tecan Spark multimode microplate reader. The parameters were F486: Excitation 340 nm, Emission 486 nm, Lag time 100 μs, Integration time 200 μs; F520: Excitation 340 nm, Emission 520 nm, Lag time 100 μs, Integration time 200 μs. TR-FRET ratios for each individual wells were calculated by equation: TR-FRET ratio=(Signal F520/Signal F486)*10000. The percent of activation of compounds treated wells were normalized between vehicle control and low control (% Activation=(TR-FRET ratioCompound treated−TR-FRET ratioLow control)/(TR-FRET ratioVehicle control−TR-FRET ratioLow control)*100%). Then the data were analyzed either by fitting a 4-parameter logistic model or by Excel to calculate IC50 values.
# T1 sequence (P01116 1-169 isoform P01116-2 G12V): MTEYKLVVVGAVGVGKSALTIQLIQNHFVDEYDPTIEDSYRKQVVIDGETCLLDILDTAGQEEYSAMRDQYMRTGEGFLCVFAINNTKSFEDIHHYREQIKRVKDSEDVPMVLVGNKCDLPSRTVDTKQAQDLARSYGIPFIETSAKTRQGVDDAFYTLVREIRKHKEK
smiles,measurement,value
C#Cc1c(F)ccc2cc(O)cc(-c3nc4c5c(nc(OC[C@@]67CCCN6C[C@H](F)C7)nc5c3F)N(C)C3CC3N4C)c12 (mixture of isomers) [Compound 2],pIC50,7.58
C#Cc1c(F)ccc2cc(O)cc(-c3nc4c5c(nc(OC[C@@]67CCCN6C[C@H](F)C7)nc5c3F)N(C)C3COCC3N4C)c12 (mixture of isomers) [Compound 3],pIC50,9.12
C#Cc1c(F)ccc2cc(O)cc(-c3nc4c5c(nc(OCC67CCCN6CC(F)C7)nc5c3F)N(C)C3CCCC3N4C)c12 (centres unmarked) [Compound 1],pIC50,8.36
C#Cc1c(F)ccc2cc(O)cc(-c3nc4c5c(nc(OC[C@@]67CCCN6C[C@H](F)C7)nc5c3F)N(C)[C@H]3COC[C@H]3N4)c12 [Compound 4],pIC50,8.87
C#Cc1c(F)ccc2cc(N)cc(-c3nc4c5c(nc(OCC67CCCN6CC(F)C7)nc5c3F)N(C)C3COCC3N4C)c12 (centres unmarked) [Compound 5],pIC50,8.25
